Assay results from patent US20230279036A1, “Salts of Remdesivir” (Apotex Inc., priority 2020, published 2023).

Assay: PXRD study of crystalline form stability in a 40° C./75% RH stability chamber
Assay type: physicochemical
Settings: capped and uncapped samples, at least one year
Protocol: Remdesivir napsylate Form APO-I can be characterized by a PXRD diffractogram comprising, among other peaks, characteristic peaks, expressed in degrees 2θ (±0.2°), at 5.1°, 6.5° and 13.1°. Preferably, the PXRD diffractogram further comprises at least three peaks, expressed in degrees 2θ (±0.2°), selected from the group consisting of 4.5°, 9.0°, 10.0°, 11.5°, 13.6°, 15.3°, 16.4°, 17.2°, 20.2° and 24.3°. More preferably, the PXRD diffractogram further comprises peaks, expressed in degrees 2θ (±0.2°), at 4.5°, 9.0°, 10.0°, 11.5°, 13.6°, 15.3°, 16.4°, 17.2°, 20.2° and 24.3°.
Remdesivir tosylate Form APO-I can be characterized by a PXRD diffractogram comprising, among other peaks, characteristic peaks, expressed in degrees […] (±0.2°), at 5.5°, 7.7° and 13.1°. Preferably, the PXRD diffractogram further comprises at least three peaks, expressed in degrees 2θ (±0.2°), selected from the group consisting of 4.5°, 6.5°, 9.1°, 9.8°, 16.0°, 16.6°, 17.1°, 17.5°, 18.4° and 20.0°. More preferably, the PXRD diffractogram further comprises peaks, expressed in degrees 2θ (±0.2°), at 4.5°, 6.5°, 9.1°, 9.8°, 16.0°, 16.6°, 17.1°, 17.5°, 18.4° and 20.0°.
The PXRD diffractogram was recorded on a Bruker D8 Discover powder X-ray diffractometer (Bruker-AXS, Karlsruhe, Germany). […] Raw data was evaluated using the program EVA (Bruker-AXS, Karlsruhe, Germany).

Row | SMILES | change in the crystalline form by PXRD
1 | CCC(CC)COC(=O)C(C)NP(=O)(OCC1OC(C#N)(c2ccc3c(N)ncnn23)C(O)C1O)Oc1ccccc1.O=S(=O)(O)c1ccc2ccccc2c1 (centres unmarked) [remdesivir napsylate Form APO-I, remdesivir naphthalene-2-sulfonate Form APO-I] | no change in the crystalline form occurred
2 | CCC(CC)COC(=O)[C@H](C)N[P@](=O)(OC[C@H]1O[C@@](C#N)(c2ccc3c(N)ncnn23)[C@H](O)[C@@H]1O)Oc1ccccc1.Cc1ccc(S(=O)(=O)O)cc1 [remdesivir tosylate Form APO-1, remdesivir tosylate Form APO-I] | no change in the crystalline form occurred
